In series [1] the test system is LF cleavage of MEK1 in HeLa cells. The class given is cell-based, Human.
For series [2] the following is noted: microsomes.
Series [3] in a line: in vitro. The note with it: microsomes.
Series [4] concerns the target lethal factor (LF) (Bacillus anthracis, UniProt P15917). Kind of series: biochemical. The class given is biochemical.
In series [5] the test system is Bacillus anthracis Sterne spores. More on the design: species or system A/J mice. The settings on record: mouse, in vivo.
The test system of series [6] is RAW 264.7 macrophages, LF/PA induced cell death. Kind of series: cells. The note with it: Mus musculus, RAW264.7, 4 h, read-out: EC50 (macrophage assay). The class given is cell-based, Murine.

“Also recorded” adds a separate entry of the source.

Chain of lethal factor (LF) (P15917 34-809 limits assumed): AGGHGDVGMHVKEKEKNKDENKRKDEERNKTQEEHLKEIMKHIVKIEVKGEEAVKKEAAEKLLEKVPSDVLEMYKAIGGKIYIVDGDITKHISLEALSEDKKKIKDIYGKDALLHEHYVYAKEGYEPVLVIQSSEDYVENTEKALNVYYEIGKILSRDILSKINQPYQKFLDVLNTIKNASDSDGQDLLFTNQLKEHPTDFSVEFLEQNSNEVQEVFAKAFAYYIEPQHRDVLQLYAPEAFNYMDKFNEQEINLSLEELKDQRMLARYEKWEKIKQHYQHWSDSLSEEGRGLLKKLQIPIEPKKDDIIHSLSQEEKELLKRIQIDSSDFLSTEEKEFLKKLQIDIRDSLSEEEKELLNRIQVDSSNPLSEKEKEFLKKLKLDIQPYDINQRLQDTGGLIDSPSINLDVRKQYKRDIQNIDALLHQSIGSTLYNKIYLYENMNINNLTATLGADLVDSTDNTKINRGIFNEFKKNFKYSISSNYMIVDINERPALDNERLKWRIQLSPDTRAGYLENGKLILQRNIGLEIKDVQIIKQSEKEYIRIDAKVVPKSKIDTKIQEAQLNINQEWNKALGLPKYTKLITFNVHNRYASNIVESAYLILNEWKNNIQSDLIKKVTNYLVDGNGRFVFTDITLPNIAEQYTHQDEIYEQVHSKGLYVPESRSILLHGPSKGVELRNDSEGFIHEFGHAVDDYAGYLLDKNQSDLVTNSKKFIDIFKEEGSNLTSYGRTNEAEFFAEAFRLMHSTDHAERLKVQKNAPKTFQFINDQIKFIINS

As to `Cc1cc(S(=O)(=O)N[C@H](C(=O)NO)C2CCOCC2)ccc1F` [Compound 7], in series [1], the “protection of HeLa cells against LF cleavage of MEK1” value (“protection of HeLa cells” below) was “effective”.
As to `Cc1csc(NS(=O)(=O)c2ccc([N+](=O)[O-])cc2)c1-c1nc2ccccc2s1` [Compound 17, N-(3-(benzo[d]thiazol-2-yl)-4-methylthiophen-2-yl)-4-nitrobenzenesulfonamide], the Pampa entry is reported as “High”. For the same compound, the “Metabolic stability Hept. CLint” value in series [2] is on record as “t1/2= >120min CLint= 0.6”. This compound returned a half-life in series [3] of over 2 h.
Consider `Nc1sccc1-c1nc2ccccc2s1` [Compound 42, reference compound], for which, in series [4], the “inhibitory activity against LF (in words)” value was “essentially inactive”.
As for `Cc1ccc(S(=O)(=O)Nc2sccc2-c2nc3ccccc3s2)cc1Cl` [Compound 55, N-(3-(benzo[d]thiazol-2-yl)thiophen-2-yl)-3-chloro-4-methylbenzenesulfonamide], the Pampa entry is recorded as “High”. In addition, in series [5], the “survival of infected mice versus DMSO control” value was “slight improvement in comparison to the control”. The compound also came in with a half-life in series [3] of over 2 h.
`O=S(=O)(Nc1sccc1-c1nc2ccccc2s1)c1cc(OCC(F)(F)F)ccc1OCC(F)(F)F` [Compound 56, N-(3-(benzo[d]thiazol-2-yl)thiopen-2-yl)-2,5-bis(2,2,2-trifluoroethoxy)benzenesulfonamide]: the IC50 in series [4] came to 39 µM.
On to `COc1ccc(-c2ccc(S(=O)(=O)Nc3sccc3-c3nc4ccccc4s3)cc2)cc1` [Compound 70], for which the Pampa entry is “Low”. Besides, the EC50 in series [6] was found to be 0.561 µM. In addition, the “protection of HeLa cells” value in series [1] is “effective”. In addition, the “survival of infected mice versus DMSO control” value in series [5] is given as “a little more effective in protecting the mice; also recorded: best survival”. Moreover, the “Metabolic stability Hept. CLint” value in series [2] was “t1/2= >120min CLint= 3.6”. For the same compound, in series [3], the half-life was over 2 h.
In the case of `O=S(=O)(Nc1sccc1-c1nc2ccccc2s1)c1ccc(-c2ccc(Cl)cc2)cc1` [Compound 71], the Pampa result was “Low”. For the same compound, the half-life in series [3] was over 2 h.
In the case of `O=S(=O)(Nc1sccc1-c1nc2ccccc2s1)c1ccc2ncsc2c1` [Compound 92, N-(3-(benzo[d]thiazol-2-yl)thiophen-2-yl)benzo[d]thiazole-6-sulfonamide], the Pampa result is “High”. Moreover, the “Metabolic stability Hept. CLint” value in series [2] is listed as “t1/2= >120min CLint= 3.9”. The compound further came in with a half-life in series [3] of over 2 h.
`CSc1nccc(-c2ccc(S(=O)(=O)Nc3sccc3-c3nc4ccccc4s3)s2)n1` [Compound 99, N-(3-(benzo[d]thiazol-2-yl)thiophen-2-yl)-5-(2-(methylthio)pyrimidin-4-yl)thiophene-2-sulfonamide]: in series [4], the IC50 was 18 µM. In other words, the double-digit micromolar range.
`COc1ccc(-c2ccc(S(=O)(=O)Nc3sc4c(c3-c3nc5ccccc5s3)CCCC4)cc2)cc1` [Compound 105]: the IC50 in series [4] is over 50 µM.
On the same count and under the same terms, for `O=S(=O)(Nc1sc2c(c1-c1nc3ccccc3s1)CCCC2)c1ccc(-c2ccc(Cl)cc2)cc1` [Compound 106] the value was over 50 µM.
On to `CNC(=O)[C@H](Cc1c[nH]c2ccccc12)NC(=O)[C@@H](CC(=O)NO)CC(C)C` [Inhibitor 1, Ilomastat], for which the “protection of HeLa cells” value in series [1] is “effective”.

For the origin of these results see paper PMC2730741 (Bioorganic & medicinal chemistry, 2009).
